Measurements from patent publication US10105414B2, “Peptides derived from RS1 which down-regulate glucose absorption after a glucose rich meal and increase insulin sensitivity” (Julius-Maximilians-Universität Würzburg, priority 2014, dated 2018).
Where two headings read alike, the source gives them in different places. Each block holds one molecule with its values, some of them ahead of it.

Columns and labels:
[1] = test system: hSGLT1; assay: hSGLT1-mediated AMG uptake in Xenopus laevis oocytes 1 h after injection of peptides; type: cell-based, human; settings: for down-regulation of hSGLT1 when putrescine was added: intracellular concentration 1 μM
Protocol: (§1) Selected oocytes were injected with 50 nl of water containing cRNAs (2.5 ng of hSGLT1 or 0.5 ng of hCNT1). For expression oocytes were incubated for 2-3 days at 16° C. in modified Barth's solution with gentamycin. Noninjected control oocytes were incubated in parallel.
(§2) Before uptake measurements were started, 50 nl of K-Ori buffer containing peptides, polypeptides, 1 pM of calmodulin stimulated kinase 2 (CK2) inhibitor KN93 (Calbiochem San Diego. Calif.), 3 mM of the omithinedecarboxlase inhibitor difluoromethylornithine DFMO and/or or 100 pmol α-methyl-α-D-glucopyranoside (AMG) were injected and the oocytes were incubated for 1 h at room temperature. Uptake was measured in Ori buffer at room temperature. Measurements in transporter expressing oocytes were corrected for measurements in noninjected oocytes. Uptake of 50 μM [^14C]AMG was measured after 15 min incubation and washing in ice-cold Ori buffer containing 1 mM phlorizin. Uptake of 5 μM [^3H]uridine was measured after 15 min incubation and washing in ice-cold Ori buffer. Oocytes were solubilized in 5% (w/v) SDS and analyzed for radioactivity by scintillation counting.
(§3) For comparison of mean values from 2 groups the Student's t-test for unpaired samples was employed.

[2] = test system: hCNT1; assay: hCNT1-mediated uridine uptake in Xenopus laevis oocytes after injection of peptides; type: cell-based, human; settings: for uptake of 5 μM [3H]uridine expressed by hCNT1: low intracellular glucose, no AMG injected
Protocol: as §1, §2, §3

[3] = test system: hCNT3; assay: hCNT3-mediated uridine uptake in Xenopus laevis oocytes after injection of peptides; type: cell-based, human; settings: low intracellular glucose, no AMG injected
Protocol: FIG. 9. […] Posttransciptional downregulation of hCNT1 and hCNT3 was measured without injection of AMG. […] One hour later uptake of 5 μM [^3H]uridine was measured.
as §2

[4] = test system: mSGLT1; settings: RS1−/− mice starved over night; gavage 20 μmol per mouse; after 2 h
Protocol: (§4) For measurement of SGLT1 mediated glucose uptake, the everted segments of mouse small intestine or defined areas of human mucosa were incubated for 2 min at 37° C. with Krebs-Ringer buffer containing 10 μM [^14C]AMG with or without 0.2 mM phlorizin. Uptake was stopped by transferring the segments into ice cold Krebs-Ringer buffer containing 0.2 mM phlorizin for 5 min. After washing with ice cold Krebs-Ringer buffer the intestinal segments or pieces of human mucosa were dissolved in 0.5 ml Soluence-350) (Perkin Elmer Inc. Waltham Mass., USA). Radioactivity was analysed by liquid scintillation counting. Phlorizin inhibited AMG uptake per cm length or per standard area of the mucosa was calculated.
(§5) After 2 h the animals were killed, their small intestines were everted and phlorizin inhibited uptake of 10 μM [^14C]AMG Into segments of the everted jejunum was measured (FIG. 12A).

[5] = RS1−/− mice; gavage 20 μmol QEP before 40% D-glucose gavage
Protocol: Blood (2 μL) was collected from the tail vein and analysed using the amperometric glucose oxidase method (glucose meter, ACCU-CHEK Aviva). Blood insulin-Insulin was determined using the rat C-peptide ELISA from Mercodia (Uppsala, Sweden) which is based on the sandwich technique using two monoclonal antibodies directed against two different antigenic determinants on the C-peptide.
as §5

[6] = test system: mSGLT1
Protocol: (§6) Standardised t areas of human small intestinal mucosa (FIGS. 13,19) or 1 cm segments of everted mouse small intestine (FIGS. 14,15,20) were washed three times at 37° C. with Krebs-Ringer buffer containing 5 mM D-glucose and incubated for 30 min at 37° C. in Krebs-Ringer buffer containing 5 mM D-glucose plus different concentrations of tripeptides. Thereafter the tissue was washed three times at 0° C. in Krebs-Ringer buffer without glucose and uptake measurements were performed.
as §4
Thereafter the segments were washed with PBS buffer and phlorizin inhibited uptake of 10 μM [^14C]AMG was measured.

[7] = test system: hSGLT1; settings: 30 min; for down-regulation of hSGLT1 mediated AMG uptake: 5 mM D-glucose
Protocol: Jejunal segments which were routinely dissected during bariatric operations of highly obese patients were stored for 1-3 h on ice in Dulbecco's modified Eagle's medium containing 5 mM D-glucose. The mucosa was isolated and circular areas of the mucosa were dissected using a punching instrument.
as §6, §4
Next, it was investigated which of the QXP-type tripeptides are capable to downregulate hSGLT1 expression in human small intestine in the presence of high glucose. Jejunal samples that were obtained during bariatric surgery of obese patients (males and females with a mean age of 50 years with a mean body mass index of 50) were used. […] A part of the jejumum which is routinely removed during bariatric surgery, was carried to the laboratory using ice-cold culture medium containing 6 mM D-glucose. Part of the mucosa was dissected and identical areas of the mucosa were isolated using a punching instrument. The mucosal pieces were washed with glucose free buffer and incubated for 30 min at 37° C. in tissue culture medium (pH 6.4) containing 5 mM D-glucose and different QXP-type tripeptides. Thereafter the sample were washed two times with PBS buffer (pH 7.4, 37° C.) and incubated for 2 min at 37° C. in PBS (pH 7.4) containing 100 mM sodium and 10 μM [^14C]AMG. The incubation was performed in the absence and presence of 200 μM of the SGLT1 inhibitor phlorizin. Thereafter the samples were washed with ice-cold PBS, the tissue was dissolved, and radioactivity was determined by liquid scintillation counting. The phorizin inhibited AMG uptake was calculated.

[8] = molecular target: T1, ODC (Homo sapiens, UniProt P11926); assay: Activity of purified ODC (released CO2); type: biochemical; settings: 100 μM tripeptide, 80 ng purified ODC, 1 h, 37° C.
T1 sequence (P11926 1-461): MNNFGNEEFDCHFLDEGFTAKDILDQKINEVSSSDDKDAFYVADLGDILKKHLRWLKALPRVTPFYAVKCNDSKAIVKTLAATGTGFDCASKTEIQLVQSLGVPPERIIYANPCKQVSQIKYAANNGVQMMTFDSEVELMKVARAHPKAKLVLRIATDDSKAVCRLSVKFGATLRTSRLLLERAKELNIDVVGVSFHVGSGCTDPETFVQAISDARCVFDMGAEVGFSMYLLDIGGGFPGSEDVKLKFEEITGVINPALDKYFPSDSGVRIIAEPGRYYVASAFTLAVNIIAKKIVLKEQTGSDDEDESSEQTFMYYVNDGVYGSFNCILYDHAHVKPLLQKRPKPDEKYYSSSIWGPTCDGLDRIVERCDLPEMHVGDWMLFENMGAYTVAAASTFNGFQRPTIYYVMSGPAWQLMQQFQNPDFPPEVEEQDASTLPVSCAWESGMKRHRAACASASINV

[9] = molecular target: T1, ODC; assay: Two-hybrid screening and immunocoprecipitation; type: binding; settings: data not shown
Protocol: (§7) Employing two-hybrid screening and immunocoprecipitation experiments evidence was provided that hRS1-Reg binds to ODC (data not shown). It was shown that the release of SGLT1 containing vesicles from the Golgi apparatus was blocked by specific ODC Inhibitor difluoromethylornithine (DFMO) and that the DFMO effect was blunted when putrescine was added (FIG. 23A). Since hRS1-Reg and DFMO down-regulate hSGLT1 to a similar degree and the down-regulations were not additive, RS1-Reg and ODC employ the same pathway for down-regulation of hSGLT1.

[10] = molecular target: T1, ODC; assay: ODC activity (released CO2) in HEK293 cells transfected with ODC; type: cell-based; parameters: expressed in transfected cells; host or cells: HEK293
Protocol: FIG. 23. […] Expressed uptake of 25 μM [^14C]AMG was measured 1 h later as FIG. 2. In A-C mean value±SE of 24-30 oocytes from three independent experiments are presented. D) HEK293 cells were transiently transfected with ODC, ODC plus hRS1-Reg or with ODC plus control vector. […] In D and E mean values±SE from 3-5 independent experiments are indicated. ***P<0.001 for difference to controls measured by ANOVA with posthoc Tukey comparison.
as §7

[11] = without injection of AMG (intracellular AMG <10 μM)

Molecule: glutamine-glutamic acid-proline [QEP]
affinity at high intracellular glucose higher than affinity of QSP at low intracellular glucose [1]: about 1000 times
degree of down-regulation of hSGLT1 ([1]; 5 pM, intracellular AMG ~0.25 mM): ~45%
inhibition of SGLT1 mediated transport ([1]; 50 nM tripeptide, no AMG injected): inhibition
increase of affinity (decrease of IC50) for down-regulation of hSGLT1 at high versus low intracellular AMG ([1]; intracellular AMG ~250 μM versus low): more than 15000 fold
down-regulation of hSGLT1 when putrescine was added [1]: blunted
inhibition of SGLT1 expression ([1]; with injection of AMG (intracellular AMG ~0.25 mM)): about 50%
down-regulation / inhibition of hSGLT1-mediated AMG uptake [1, 11]: about 40%
IC50 ([1]; without injection of AMG (intracellular AMG <10 μM), read-out: IC50 for down-regulation of hSGLT1-mediated AMG uptake): 7.9 nM
uptake of 5 μM [3H]uridine expressed by hCNT1 [2]: not able to inhibit
uptake of 5 μM [3H]uridine expressed by hCNT3 [3]: not able to inhibit
decrease of phlorizin inhibited uptake of 10 μM [14C]AMG into everted jejunum [4]: about 30%
plasma D-glucose 15 min after glucose gavage [5]: significantly reduced
effect on SGLT1 mediated AMG uptake, first series of experiments [6]: no effect
down-regulation of hSGLT1 mediated AMG uptake ([7]; 0.1 mM): not statistically significant
down-regulation of hSGLT1 mediated AMG uptake ([7]; 0.5 mM): not statistically significant
down-regulation of hSGLT1 mediated AMG uptake ([7]; 1 mM): 40%
SGLT1 mediated AMG uptake at low intracellular glucose ([7]; 5 mM QEP in PBS without glucose, data not shown): did not decrease
down-regulation of hSGLT1 mediated AMG uptake ([7]; 15 mM): 75%
inhibition of ODC activity [8]: about 40%
insulin sensitivity (NZO mice, 5 mM QEP in drinking water): increased
SGLT1-mediated AMG transport into enterocytes and glucose absorption during an OGTT (mouse, in vivo): not decreased
decrease of basal concentration of insulin in the serum (mouse, in vivo): 50%
increase and decrease of serum glucose after gavage with glucose (mouse, in vivo): no effect
increase of serum insulin after gavage with glucose (mouse, in vivo): decreased

IC50 ([2]; without injection of AMG, read-out: IC50 for down-regulation of hCNT1-mediated uridine uptake): 126 ± 6 nM
binding to ODC [9]: binds to ODC
ODC activity when hRS1-Reg was coexpressed [10]: decreased
B1: hRS1-Reg: regulatory domain of RS1 from human comprising amino acids 16-98 of hRS1 (SEQ ID No. 6) (protein, listed as Homo sapiens)
chain: SSGQSPDVGNPMSLARSVSASVCPIKPSDSDRIEPKAVKALKASAEFQLNSEKKEHLSLQDLSDHASSADHAPTDQSPAMPMQ
down-regulation of hSGLT1 by hRS1-Reg together with DFMO ([1]; DFMO intracellular concentration 3 mM): not additive
affinity for down-regulation of hSGLT1 when CK2 is blocked by inhibitor KN93 ([1]; co-injected KN93, no AMG injected): largely increased
effect of intracellular AMG on the affinity for down-regulation of hSGLT1 after inhibition of CK2 ([1]; co-injected KN93, with AMG): drastically decreased
down-regulation of hSGLT1 when putrescine was added [1]: blunted
down-regulation / inhibition of hSGLT1-mediated AMG uptake [1, 11]: about 50%
effect of 250 μM intracellular AMG on affinity for down-regulation of hCNT1 ([2]; intracellular AMG 250 μM): not altered
uptake of 5 μM [3H]uridine expressed by hCNT1 [2]: decreased
down-regulation of hCNT1 ([2]; without injection of AMG): about 50%
uptake of 5 μM [3H]uridine expressed by hCNT3 [3]: decreased
